How the values were obtained:
[1] = tested on: Sphaerotheca fuliginea; experiment: In vivo preventive test on Sphaerotheca fuliginea (powdery mildew on cucurbits); conditions: Podosphaera fuliginea, 192 h; 500 ppm of active ingredient, sprayed on young gherkin plants 24 h before inoculation; evaluated 8 days after inoculation; read-out: efficacy
Procedure: (§1) B-3. […] The active ingredients were made soluble and homogenized in a mixture of Dimethyl sulfoxide/Acetone//Tween® 80 and then diluted in water to the desired concentration. The young plants of gherkin were treated by spraying the active ingredient prepared as described above. Control plants were treated only with an aqueous solution of Acetone/Dimethyl sulfoxide/Tween® 80. After 24 hours, the plants were contaminated by spraying the leaves with an aqueous suspension of Sphaerotheca fuliginea spores.

[2] = tested on: Colletotrichum lindemuthianum; experiment: In vivo preventive test on Colletotrichum lindemuthianum (leaf spot on bean); conditions: 168 h, 500 ppm of active ingredient, sprayed on young bean plants 24 h before inoculation, evaluated 7 days after inoculation, read-out: efficacy
Procedure: as §1, with “B-4.” for “B-3.”, “bean” for “gherkin”, “Colletotrichum lindemuthianum” for “Sphaerotheca fuliginea”

[3] = tested on: Botrytis cinerea; experiment: In vivo preventive test on Botrytis cinerea (grey mould); conditions: 500 ppm of active ingredient, sprayed on young gherkin or cabbage plants 24 h before inoculation, evaluated 4 to 5 days after inoculation, read-out: efficacy
Procedure, shortened: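 Young plants of gherkin or cabbage were sprayed with water-diluted compound formulated in DMSO/acetone/Tween 80, with solvent-only controls. Inoculation followed 24 h later by spraying an aqueous spore suspension of Botrytis cinerea onto leaves.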

[4] = Measurement of Log P values by HPLC on reversed phase columns (EEC directive 79/831 Annex V.A8); format: physicochemical; conditions: Table 1, compounds of formula (I); method [a]: LC-UV, acidic range, 0.1% formic acid in water and acetonitrile
[5] = tested on: Alternaria brassicae; experiment: In vivo preventive test on Alternaria brassicae (leaf spot on radish or cabbage); conditions: 500 ppm of active ingredient, sprayed on young radish or cabbage plants 24 h before inoculation, evaluated 3 to 4 days after inoculation, read-out: efficacy
Procedure, shortened: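 Young radish or cabbage plants sprayed preventively with compound formulated in DMSO/acetone/Tween 80 and diluted in water; vehicle-treated plants as controls. Leaves inoculated by spraying an aqueous Alternaria brassicae spore suspension 24 h after treatment.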

[6] = tested on: Septoria tritici; experiment: Septoria tritici in vitro cell test; format: cell-based; conditions: Zymoseptoria tritici, 168 h; 20 ppm of active ingredient; liquid culture, 7 days incubation; read-out: efficacy (inhibition of fungal growth)
Procedure: B-11. Septoria tritici In Vitro Cell Test • Solvent: DMSO • Culture medium: 1 g KH2PO4 (VWR), 1 g K2HPO4 (VWR), 0.5 g Urea (VWR), 3 g KNO3 (Prolabo), 10 g saccharose (VWR), 0.5 g MgSO4, 7H2O (Sigma), 0.07 g CaCl2, 2H2O (Prolabo), 0.2 mg MnSO4, H2O (Sigma), 0.6 mg CuSO4, 5H2O (Sigma), 7.9 mg ZnSO4, 7H2O (Sigma), 0.1 mg H3BO3 (Merck), 0.14 mg NaMoO4, 2H2O (Sigma), 2 mg thiamine (Sigma), 0.1 mg biotine (VWR), 4 mg FeSO4, 7H2O (Sigma), QSP 1 liter • Inoculum: spore suspension Fungicides were solubilized in DMSO and the solution used to prepare the required range of concentrations. […] A spore suspension of S. tritici was prepared and diluted to the desired spore density. Fungicides were evaluated for their ability to inhibit spore germination and mycelium growth in liquid culture assay. The compounds were added in the desired concentration to the culture medium with spores. […] Inhibition of fungal growth was determined by comparing the absorbance values in wells containing the fungicides with the absorbance in control wells without fungicides.

[7] = tested on: Fusarium culmorum; experiment: Fusarium culmorum in vitro cell test; format: cell-based; conditions: 120 h, 20 ppm of active ingredient, liquid culture, 5 days incubation, read-out: efficacy (inhibition of fungal growth)
Procedure, shortened: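 Spores in liquid mineral-salts/saccharose medium exposed to compounds (DMSO ≤1% final) for 5 days. Mycelium growth measured spectrometrically, with inhibition derived from absorbance relative to fungicide-free control wells.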

[8] = tested on: Colletotrichum lindemuthianum; experiment: Colletotrichum lindemuthianum in vitro cell test; format: cell-based; conditions: 144 h, 20 ppm of active ingredient, liquid culture, 6 days incubation, read-out: efficacy (inhibition of fungal growth)
Procedure, shortened: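 Inhibition of spore germination and mycelium growth, as absorbance relative to untreated wells, was read on day 6. Compounds from DMSO stocks were added to a spore suspension in glucose/peptone/yeast extract broth.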

[9] = tested on: Pyrenophora teres; experiment: Pyrenophora teres in vitro cell test; format: cell-based; conditions: 144 h, 20 ppm of active ingredient, liquid culture, 6 days incubation, read-out: efficacy (inhibition of fungal growth)
Procedure, shortened: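 Compounds in DMSO were added to P. teres spore suspensions in glucose/peptone/yeast-extract liquid medium, testing inhibition of spore germination and mycelium growth. After 6 days, mycelium growth was read by absorbance. Inhibition was calculated relative to fungicide-free control wells.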

[10] = tested on: Pyricularia oryzae; experiment: microbe, parasite or virus in culture; format: cell-based; conditions: 120 h, read-out: efficacy (inhibition of fungal growth), 20 ppm of active ingredient, liquid culture, 5 days incubation
[11] = tested on: Botrytis cinerea; experiment: Botrytis cinerea in vitro cell test; format: cell-based; conditions: 144 h, 20 ppm of active ingredient, liquid culture, 6 days incubation, read-out: efficacy (inhibition of fungal growth)
Procedure, shortened: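 Liquid-culture germination/growth test: spore suspension in synthetic medium (salts, urea, KNO3, saccharose, trace elements, thiamine, biotin) with compound dissolved in DMSO. Absorbance of mycelial growth measured at day 6, compared with untreated wells to give inhibition.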

[12] = tested on: Alternaria alternata; experiment: Alternaria alternata in vitro cell test; format: cell-based; conditions: 120 h, 20 ppm of active ingredient, liquid culture, 5 days incubation, read-out: efficacy (inhibition of fungal growth)
Procedure, shortened: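 Spores in glucose/mycological peptone/yeast extract liquid medium were exposed to DMSO-dissolved fungicides for 5 days. Inhibition of germination and mycelial growth was read spectrophotometrically, comparing absorbance against fungicide-free control wells.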

Structure (SMILES)	pest or weed control at 500 ppm [1] [%]	pest or weed control at 500 ppm [2] [%]	pest or weed control at 500 ppm [3] [%]	chromatographic logP [4]	pest or weed control at 500 ppm [5] [%]	inhibition at 20 ppm [6] [%]	inhibition at 20 ppm [7] [%]	inhibition at 20 ppm [8] [%]	inhibition at 20 ppm [9] [%]	inhibition at 20 ppm [10] [%]	inhibition at 20 ppm [11] [%]	inhibition at 20 ppm [12] [%]
FC(F)(F)c1ccc(Sc2nnc(Cl)cc2C2=NOC[C@@H](Cc3ccc(Br)cc3Cl)N2)cc1 (racemic) [Compound I-035]	80 to 89	90 to 100	90 to 100	5								
Cc1cccc(Sc2cnc(C)nc2C2=NOC[C@@H](Cc3ccc(C)cc3Cl)N2)c1 (racemic) [Compound I-010]	90 to 100	90 to 100	90 to 100	5.17	80 to 89	90 to 100	90 to 100	90 to 100	90 to 100			
Cc1ccc(CC2CON=C(c3cc(Cl)nnc3Sc3cccc(C(F)(F)F)c3)N2)c(C)c1 (racemic) [Compound I-017, (5RS)-3-(6-chloro-3-{[3-(trifluoromethyl)phenyl]sulfanyl}pyridazin-4-yl)-5-(2,4-dimethylbenzyl)-5,6-dihydro-4H-1,2,4-oxadiazine]	90 to 100	90 to 100	90 to 100	5.27	90 to 100	90 to 100		90 to 100		80 to 89	90 to 100	80 to 89
Cc1ccc(C[C@H]2CON=C(c3nc(C)ncc3Sc3cccc(C(F)(F)F)c3)N2)c(C)c1 (racemic) [Compound I-007]	90 to 100	90 to 100	90 to 100	5.21		80 to 89		90 to 100	90 to 100	70 to 79	90 to 100	
COc1cccc(Sc2cnc(C)nc2C2=NOC[C@H](Cc3ccc(C)cc3C)N2)c1 (racemic) [Compound I-009]		70 to 79	80 to 89	4.67	80 to 89	70 to 79		80 to 89			90 to 100	
Cc1ccc(C[C@H]2CON=C(c3nc(C)ncc3Sc3cccc(C(F)(F)F)c3)N2)c(Cl)c1 (racemic) [Compound I-013]	90 to 100	90 to 100	90 to 100	5.28	80 to 89	90 to 100		90 to 100			90 to 100	
Clc1ccc(C[C@@H]2CON=C(c3cc(Cl)nnc3Sc3cccc(Br)c3)N2)c(Cl)c1 (racemic) [Compound I-005]	80 to 89		90 to 100	4.88				90 to 100		90 to 100	90 to 100	
Cc1cccc(Sc2cnc(Cl)cc2C2=NOC[C@@H](Cc3ccc(Cl)cc3Cl)N2)c1 (racemic) [Compound I-011]			90 to 100	4.86		90 to 100	90 to 100	90 to 100	90 to 100	90 to 100	90 to 100	70 to 79
Clc1cccc(Sc2cnc(Cl)cc2C2=NOC[C@@H](Cc3ccc(Cl)cc3Cl)N2)c1 (racemic) [Compound I-008]				4.9		90 to 100	90 to 100	90 to 100	90 to 100	90 to 100	90 to 100	80 to 89
